Test results reported in the NIST ThermoML archive (doi:10.1021/je700670k).

Conditions: Liquid, Vibrating tube method

CCCC[N+]1(C)CCCC1.O=S(=O)([N-]S(=O)(=O)C(F)(F)F)C(F)(F)F
mass density [kg/m3]
Conditions | 293.15 K | 303.15 K | 313.15 K | 323.15 K | 333.15 K | 353.15 K | 393.15 K
100 kPa | 1409.1 | 1399.3 | 1389.5 | 1379.8 | 1370.2 | 1351.5 | 1315.2
1000 kPa | 1409.7 | 1399.9 | 1390.1 | 1380.4 | 1370.9 | 1352.3 | 1316.1
2000 kPa | 1410.5 | 1400.7 | 1390.9 | 1381.2 | 1371.7 | 1353.2 | 1317.1
3000 kPa | 1411.2 | 1401.4 | 1391.7 | 1382 | 1372.5 | 1354.1 | 1318.1
4000 kPa | 1411.9 | 1402.2 | 1392.5 | 1382.8 | 1373.4 | 1354.9 | 1319.1
5000 kPa | 1412.6 | 1402.9 | 1393.3 | 1383.6 | 1374.2 | 1355.8 | 1320
7500 kPa | 1414.4 | 1404.8 | 1395.2 | 1385.6 | 1376.1 | 1357.9 | 1322.5
10000 kPa | 1416.1 | 1406.6 | 1397 | 1387.5 | 1378.1 | 1360 | 1324.8
15000 kPa | 1419.6 | 1410.1 | 1400.7 | 1391.3 | 1382 | 1364.1 | 1329.5
20000 kPa | 1423 | 1413.6 | 1404.3 | 1394.9 | 1385.8 | 1368.1 | 1333.7
25000 kPa | 1426.3 | 1417 | 1407.7 | 1398.5 | 1389.5 | 1371.9 | 1338
30000 kPa | 1429.6 | 1420.3 | 1411.1 | 1402 | 1393.1 | 1375.7 | 1342.2
35000 kPa | 1432.8 | 1423.6 | 1414.4 | 1405.4 | 1396.6 | 1379.4 | 1346.2
